Data on 35 compounds can be found in US20260256807A1, “SUBSTITUTED PYRAZOLES AND IMIDAZOLES AS OREXIN RECEPTOR ANTAGONISTS COMPOSITION, METHODS FOR TREATING NEUROLOGICAL AND PSYCHOLOGICAL DISORDERS” (HAGER BIOSCIENCES, LLC, priority 2022, published 2026).

In assay [1] the target is T1, human orexin-1 receptor (Homo sapiens, UniProt O43613).
T1 construct: expressed in transfected cells; host or cells: CHO cells (G418 selection)
T1 sequence (O43613 1-425): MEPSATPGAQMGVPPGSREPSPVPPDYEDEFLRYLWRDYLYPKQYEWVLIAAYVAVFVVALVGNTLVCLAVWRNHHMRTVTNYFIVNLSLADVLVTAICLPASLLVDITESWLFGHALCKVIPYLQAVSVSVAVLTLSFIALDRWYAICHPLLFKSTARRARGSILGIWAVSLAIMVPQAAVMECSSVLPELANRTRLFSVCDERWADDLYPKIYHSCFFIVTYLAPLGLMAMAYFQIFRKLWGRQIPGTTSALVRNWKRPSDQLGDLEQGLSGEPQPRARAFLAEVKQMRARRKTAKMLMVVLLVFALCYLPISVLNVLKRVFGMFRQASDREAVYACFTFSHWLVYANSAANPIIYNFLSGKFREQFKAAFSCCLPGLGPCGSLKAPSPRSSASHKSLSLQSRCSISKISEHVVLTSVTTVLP
The assay is described as follows: Intracellular calcium (FLIPR) antagonist assay, CHO cells expressing human orexin-1 receptor, 3 nM orexin-A. Format: cell-based. The settings on record: 1 uM compound, orexin-A 3 nM; for inhibition at 1 µM: CHO, read-out: OXIR % Inh. @ 1 uM. As to the method: (§1) Antagonistic activities on both orexin receptors (i.e., to identify Orexin Receptor Antagonists) have been measured for each example compound using the in vitro assays (intracellular calcium measurements) as described herein. Other assays may also be used to identify Orexin Receptor Antagonists as would be understood by those of ordinary skill in the art. Chinese hamster ovary (CHO) cells expressing the human orexin-1 receptor and the human orexin-2 receptor, respectively, are grown in culture medium (Ham F-12 with L-Glutamine) containing 300 μg/mL G418, 100 U/mL penicillin, 100 μg/mL streptomycin and 10% heat inactivated fetal calf serum (FCS). The cells are seeded at 20′000 cells/well into 384-well black clear bottom sterile plates (Greiner). The seeded plates are incubated overnight at 37° C. in 5% CO2. Human orexin-A as an agonist is prepared as 1 mM stock solution in MeOH: water (1:1), diluted in HBSS containing 0.1% bovine serum albumin (BSA), NaHC03: 0.375 g/L and 20 mM HEPES for use in the assay at a final concentration of 3 nM.
(§2) Antagonists were prepared as 10 mM stock solution in DMSO, then diluted in 384-well plates using DMSO followed by a transfer of the dilutions into in HBSS containing 0.1% bovine serum albumin (BSA), NaHC03: 0.375 g/L and 20 mM HEPES. On the day of the assay, 50 μL of staining buffer (HBSS containing 1% FCS, 20 mM HEPES, NaHC03: 0.375 g/L, 5 mM probenecid (Sigma) and 3 μM of the fluorescent calcium indicator fluro-4 AM (1 mM stock solution in DMSO, containing 10% pluronic) is added to each well. The 384-well cell-plates are incubated for 50 min at 37° C. in 5% C02 followed by equilibration at RT for 30 min before measurement. Within the Fluorescent Imaging Plate Reader (FLIPR Tetra, Molecular Devices), potential Orexin Receptor Antagonists were added to the plate in a volume of 10 μl/well, incubated for 120 min and finally 10 μL/well of agonist is added. Fluorescence was measured for each well at 1 second intervals, and the height of each fluorescence peak compared to the height of the fluorescence peak induced by 3 nM orexin-A with vehicle in place of antagonist. The IC50 value (the concentration of compound needed to inhibit 50% of the agonistic response) was determined and normalized using the obtained IC50 value of an on-plate reference compound. Optimized conditions were achieved by adjustment of pipetting speed and cell splitting regime. The calculated IC50 values fluctuate depending on the daily cellular assay performance, as is known to those skilled in the art. In the case where IC50 values have been determined several times for the same compound, the geometric mean has been given.

For assay [2], the target named is T2, human orexin-2 receptor (Homo sapiens, UniProt O43614).
T2 construct: expressed in transfected cells; host or cells: CHO cells (G418 selection)
T2 sequence (O43614 1-444): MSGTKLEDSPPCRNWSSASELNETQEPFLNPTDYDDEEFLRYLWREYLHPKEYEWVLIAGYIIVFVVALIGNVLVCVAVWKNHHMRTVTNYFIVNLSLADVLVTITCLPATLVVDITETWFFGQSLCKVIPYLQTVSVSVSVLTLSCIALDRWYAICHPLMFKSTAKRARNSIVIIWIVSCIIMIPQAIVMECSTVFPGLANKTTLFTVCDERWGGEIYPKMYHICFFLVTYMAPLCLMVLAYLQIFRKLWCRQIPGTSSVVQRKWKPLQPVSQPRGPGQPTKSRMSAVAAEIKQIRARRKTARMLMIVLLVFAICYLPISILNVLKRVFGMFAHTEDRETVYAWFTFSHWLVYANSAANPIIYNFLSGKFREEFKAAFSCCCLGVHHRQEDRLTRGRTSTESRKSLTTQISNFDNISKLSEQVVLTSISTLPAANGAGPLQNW
The assay is described as follows: Intracellular calcium (FLIPR) antagonist assay, CHO cells expressing human orexin-2 receptor, 3 nM orexin-A. Format: cell-based. The conditions noted are these: 1 uM compound, orexin-A 3 nM; for inhibition at 1 µM: CHO, read-out: OX2R % Inh. @ 1uM. The protocol:
as §1, §2
(A change in cytosolic calcium serves as a functional read-out for many receptors and channels.)

On to `O=C(c1c(-c2ccccc2)nn2ccccc12)N1CCCN(c2nc3cc(Cl)ccc3o2)CC1` [Example 1], for which the inhibition at 1 µM in assay [1] came out at 98.7%; in assay [2], 94.9%.
With `O=C(c1c(-c2ccccc2)nn2c1COCC2)N1CCCN(c2nc3cc(Cl)ccc3o2)CC1` [Example 2], the inhibition at 1 µM turned out to be 64.2% in assay [1] and 43.4% in assay [2].
As to `O=C(c1c(-c2ccccc2)nc2ccccn12)N1CCCN(c2nc3cc(Cl)ccc3o2)CC1` [Example 3], the inhibition at 1 µM in assay [1] amounted to 94%; in assay [2], 71.8%.
Regarding `C[C@@H]1CCN(c2nc3cc(Cl)ccc3o2)CCN1C(=O)c1c(-c2ccccc2)nc2ccccn12` [Example 5], the inhibition at 1 µM in assay [1] turned out to be 98.5%; in assay [2], 94.5%.
In the same order, the values of `C[C@@H]1CCN(c2nc3cc(Cl)ccc3o2)CCN1C(=O)c1c(-c2ccccc2)nc2n1CCCC2` [Example 6] are 62.5% and 33.4%.
On to `C[C@@H]1CCN(c2nc3cc(Cl)ccc3o2)CCN1C(=O)c1c(-c2ccccc2)nn2c1COCC2` [Example 7], for which the figures for the inhibition at 1 µM in assay [1] and in assay [2] were 91% and 54.5%, respectively.
In the case of `C[C@@H]1CCN(c2nc3cc(Cl)ccc3o2)CCN1C(=O)c1nn2ccccc2c1-c1ccccc1` [Example 8], the inhibition at 1 µM was determined as 98% in assay [1] and 82.7% in assay [2].
As for `C[C@@H]1CCN(c2nc3cc(Cl)ccc3o2)CCN1C(=O)c1nc2n(c1-c1ccccc1)CCCC2` [Example 9], the results for the inhibition at 1 µM in assay [1] and in assay [2] were 49.6% and 12.2%, respectively.
As for `C[C@@H]1CCN(c2nc3cc(Cl)ccc3o2)CCN1C(=O)c1c(-c2ccccc2)nn2c1CCCC2` [Example 10], the inhibition at 1 µM in assay [1] turned out to be 85.9%; in assay [2], 55.1%.
As to `COc1ccc(N2CC[C@@H](C)N(C(=O)c3c(-c4ccccc4)nn4c3COCC4)CC2)nn1` [Example 11], the inhibition at 1 µM in assay [1] is 12.2%; in assay [2] it was 21.5%.
In the same order, the values of `COc1ccc(N2CC[C@@H](C)N(C(=O)c3c(-c4ccccc4)nn4c3COCC4)CC2)nc1` [Example 12] are 14.7% and 25%.
For `COc1ccc(N2CC[C@@H](C)N(C(=O)c3c(-c4ccccc4)nn4ccccc34)CC2)nn1` [Example 13], the inhibition at 1 µM amounted to 45.1% in assay [1] and 38.6% in assay [2].
As to `COc1ccc(N2CC[C@@H](C)N(C(=O)c3c(-c4ccccc4)nn4ccccc34)CC2)nc1` [Example 14], the inhibition at 1 µM in assay [1] came to 91.6%; in assay [2] it was 57.6%.
As for `COc1ccc(N2CC[C@@H](C)N(C(=O)c3c(-c4ccccc4)nn4ccccc34)CC2)cn1` [Example 15], the inhibition at 1 µM in assay [1] is 38.7%; in assay [2] it was 37.1%.
For the compound `COc1ccc(N2CC[C@@H](C)N(C(=O)c3c(-c4ccccc4)nn4c3COCC4)CC2)cn1` [Example 16], the inhibition at 1 µM in assay [1] is -21.1%; in assay [2], 3.3%.
Regarding `C[C@@H]1CCN(c2ccc(C(F)(F)F)cn2)CCN1C(=O)c1c(-c2ccccc2)nn2ccccc12` [Example 17], the inhibition at 1 µM in assay [1] worked out at 96.3%; in assay [2], 66.7%.
In the case of `C[C@@H]1CCN(c2ccc(C(F)(F)F)cn2)CCN1C(=O)c1c(-c2ccccc2)nn2c1COCC2` [Example 18], the inhibition at 1 µM in assay [1] worked out at 82.5%; in assay [2], 35.5%.
The matching figures for `C[C@@H]1CCN(c2ccc(C(F)(F)F)cn2)CCN1C(=O)c1c(-c2ccccc2)nc2ccccn12` [Example 19]: 94.5% and 48.2%.
In the same order, the values of `COc1ccc(N2CC[C@@H](C)N(C(=O)c3c(-c4ccccc4)nc4ccccn34)CC2)nc1` [Example 20] are 62.1% and 32.2%.
For the compound `COc1ccc(N2CC[C@@H](C)N(C(=O)c3c(-c4ccccc4)nc4ccccn34)CC2)nn1` [Example 21], the inhibition at 1 µM was 20.9% in assay [1] and 23.7% in assay [2].
With `COc1ccc(N2CC[C@@H](C)N(C(=O)c3c(-c4ccccc4)nc4ccccn34)CC2)cn1` [Example 22], the results for the inhibition at 1 µM in assay [1] and in assay [2] were 15% and 28.3%, respectively.
For `C[C@@H]1CCN(c2ccc(F)cn2)CCN1C(=O)c1c(-c2ccccc2)nc2ccccn12` [Example 23], the inhibition at 1 µM turned out to be 18.6% in assay [1] and 32.7% in assay [2].
Consider `C[C@@H]1CCN(c2ccc(F)cn2)CCN1C(=O)c1c(-c2ccccc2)nn2ccccc12` [Example 24], for which the inhibition at 1 µM was determined as 44.2% in assay [1] and 46% in assay [2].
Turning to `C[C@@H]1CCN(c2ccc(F)cn2)CCN1C(=O)c1c(-c2ccccc2)nn2c1COCC2` [Example 25], the inhibition at 1 µM turned out to be 11.6% in assay [1] and 7.7% in assay [2].
As to `Cc1cc(C)nc(N2CC3CN(C(=O)c4c(-c5ccccc5)nc5ccc(F)cn45)CC3C2)n1` (stereo not shown) [Example 26], the inhibition at 1 µM in assay [1] worked out at 1.61%; in assay [2], 33.8%.
With `Cc1cc(C)nc(N2CC3CN(C(=O)c4c(-c5ccc(F)cc5)nc5ccccn45)CC3C2)n1` (stereo not shown) [Example 27], the inhibition at 1 µM was 6.42% in assay [1] and 14.2% in assay [2].
`Cc1cc(C)nc(N2CC3CN(C(=O)c4c(-c5ccccc5F)nc5ccccn45)CC3C2)n1` (stereo not shown) [Example 28]: the inhibition at 1 µM in assay [1] came out at 18.3%; in assay [2] it was 36.6%.
Regarding `Cc1cc(C)nc(N2CC3CN(C(=O)c4c(-c5ccccc5F)nc5ccccn45)CC3C2)n1` (stereo not shown) [Example 29], the “OXIR % Inh. @ 1 uM” value in assay [1] is on record as 19.54%. The “OX2R % Inh. @ 1uM” value in assay [2] is listed as 34.14%.
Consider `Cc1cc(C)nc(N2CC3CN(C(=O)c4c(-c5ccc(F)cc5)nn5ccccc45)CC3C2)n1` (stereo not shown) [Example 30], for which the inhibition at 1 µM in assay [1] amounted to 28.3%; in assay [2], 36.8%.
With `Cc1cc(C)nc(N2CC3CN(C(=O)c4nc5ccccn5c4-c4ccc(F)cc4)CC3C2)n1` (stereo not shown) [Example 31], the inhibition at 1 µM was determined as 8.04% in assay [1] and 3.74% in assay [2].
The matching figures for `Cc1cc(C)nc(N2CC3CN(C(=O)c4nc5ccccn5c4-c4ccccc4F)CC3C2)n1` (stereo not shown) [Example 32]: 4.01% and 12.1%.
`Cc1cc(C)nc(N2CC3CN(C(=O)c4nn5ccccc5c4-c4ccc(F)cc4)CC3C2)n1` (stereo not shown) [Example 33]: the values for the inhibition at 1 µM in assay [1] and in assay [2] were 5% and 17.6%, respectively.
For the compound `Cc1cc(C)nc(N2CC3CN(C(=O)c4nn5ccccc5c4-c4ccccc4F)CC3C2)n1` (stereo not shown) [Example 34], the inhibition at 1 µM in assay [1] was determined as 2.36%; in assay [2] it was 31.4%.
For `O=C(c1c(-c2ccccc2)nc2ccc(F)cn12)N1CC2CN(c3ccc(C(F)(F)F)cn3)CC2C1` (stereo not shown) [Example 35], the figures for the inhibition at 1 µM in assay [1] and in assay [2] were 59.1% and 22.5%, respectively.
In the same order, the values of `O=C(c1c(-c2ccccc2)nc2cc(F)ccn12)N1CC2CN(c3ccc(C(F)(F)F)cn3)CC2C1` (stereo not shown) [Example 36] are 35% and 23.6%.
